Measurements taken from ChEMBL document CHEMBL5291721, “A preclinical secondary pharmacology resource illuminates target-adverse drug reaction associations of marketed drugs” (Nat Commun, 2023).

Tests used:
[1] = molecular target: T1, Gamma-aminobutyric acid receptor subunit alpha-1 (Rattus norvegicus, UniProt P62813)
[2] = molecular target: T2, Alpha-2A adrenergic receptor (Homo sapiens, UniProt P08913); assay type: functional, cell-based
T2 sequence (P08913 whole entry): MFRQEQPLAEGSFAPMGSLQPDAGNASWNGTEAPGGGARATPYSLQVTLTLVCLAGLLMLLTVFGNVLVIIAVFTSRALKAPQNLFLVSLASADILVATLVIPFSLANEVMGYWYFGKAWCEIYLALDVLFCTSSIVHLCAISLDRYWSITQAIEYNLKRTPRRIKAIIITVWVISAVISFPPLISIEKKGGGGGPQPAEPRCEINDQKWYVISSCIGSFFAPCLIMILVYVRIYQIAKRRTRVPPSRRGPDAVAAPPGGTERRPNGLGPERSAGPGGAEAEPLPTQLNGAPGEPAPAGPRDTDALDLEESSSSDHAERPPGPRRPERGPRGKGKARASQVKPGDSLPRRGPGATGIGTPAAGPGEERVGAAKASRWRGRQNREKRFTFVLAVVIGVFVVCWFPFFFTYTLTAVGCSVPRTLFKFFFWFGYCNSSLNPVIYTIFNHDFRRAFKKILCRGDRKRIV

[3] = molecular target: T1, Gamma-aminobutyric acid receptor subunit alpha-1; assay type: functional
[4] = molecular target: Histamine H2 receptor (Homo sapiens, UniProt P25021); assay type: functional, cell-based
Sequence of Histamine H2 receptor (P25021 whole entry): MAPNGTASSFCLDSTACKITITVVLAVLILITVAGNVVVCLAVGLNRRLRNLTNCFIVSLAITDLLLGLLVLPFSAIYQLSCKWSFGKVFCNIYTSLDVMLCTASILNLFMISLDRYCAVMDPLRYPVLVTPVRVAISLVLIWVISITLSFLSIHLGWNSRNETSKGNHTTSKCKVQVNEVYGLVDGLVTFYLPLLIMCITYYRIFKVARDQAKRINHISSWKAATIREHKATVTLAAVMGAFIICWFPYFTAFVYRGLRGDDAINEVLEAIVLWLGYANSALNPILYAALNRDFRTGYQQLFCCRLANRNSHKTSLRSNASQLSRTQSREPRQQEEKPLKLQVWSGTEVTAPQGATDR

[5] = molecular target: 5-hydroxytryptamine receptor 2B (Homo sapiens, UniProt P41595); assay type: functional, cell-based
Sequence of 5-hydroxytryptamine receptor 2B (P41595 whole entry): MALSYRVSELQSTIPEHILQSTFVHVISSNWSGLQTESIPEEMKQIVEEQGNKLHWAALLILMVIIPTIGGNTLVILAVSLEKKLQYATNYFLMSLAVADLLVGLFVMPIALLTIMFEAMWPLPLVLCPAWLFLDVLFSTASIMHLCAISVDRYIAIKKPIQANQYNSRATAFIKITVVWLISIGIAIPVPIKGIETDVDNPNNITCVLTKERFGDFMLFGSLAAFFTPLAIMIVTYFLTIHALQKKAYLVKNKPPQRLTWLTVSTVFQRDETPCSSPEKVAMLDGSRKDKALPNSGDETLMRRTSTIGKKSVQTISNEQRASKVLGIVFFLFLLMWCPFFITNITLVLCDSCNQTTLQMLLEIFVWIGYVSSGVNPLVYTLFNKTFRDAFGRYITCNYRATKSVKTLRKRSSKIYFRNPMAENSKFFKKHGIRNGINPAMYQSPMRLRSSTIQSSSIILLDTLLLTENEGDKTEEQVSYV

[6] = molecular target: T3, B2 bradykinin receptor (Homo sapiens, UniProt P30411)
T3 sequence (P30411 whole entry): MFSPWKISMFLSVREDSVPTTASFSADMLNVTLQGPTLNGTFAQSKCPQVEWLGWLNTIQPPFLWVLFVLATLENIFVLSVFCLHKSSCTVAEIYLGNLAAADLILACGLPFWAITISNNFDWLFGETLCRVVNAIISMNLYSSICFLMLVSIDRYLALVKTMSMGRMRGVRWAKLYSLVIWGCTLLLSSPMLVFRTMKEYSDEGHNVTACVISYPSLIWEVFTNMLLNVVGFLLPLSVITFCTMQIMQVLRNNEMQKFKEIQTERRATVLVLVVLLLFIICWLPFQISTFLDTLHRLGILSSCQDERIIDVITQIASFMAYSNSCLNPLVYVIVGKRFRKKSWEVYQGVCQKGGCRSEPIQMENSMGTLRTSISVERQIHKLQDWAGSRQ

[7] = molecular target: T4, Cholecystokinin receptor type A (Homo sapiens, UniProt P32238)
T4 sequence (P32238 whole entry): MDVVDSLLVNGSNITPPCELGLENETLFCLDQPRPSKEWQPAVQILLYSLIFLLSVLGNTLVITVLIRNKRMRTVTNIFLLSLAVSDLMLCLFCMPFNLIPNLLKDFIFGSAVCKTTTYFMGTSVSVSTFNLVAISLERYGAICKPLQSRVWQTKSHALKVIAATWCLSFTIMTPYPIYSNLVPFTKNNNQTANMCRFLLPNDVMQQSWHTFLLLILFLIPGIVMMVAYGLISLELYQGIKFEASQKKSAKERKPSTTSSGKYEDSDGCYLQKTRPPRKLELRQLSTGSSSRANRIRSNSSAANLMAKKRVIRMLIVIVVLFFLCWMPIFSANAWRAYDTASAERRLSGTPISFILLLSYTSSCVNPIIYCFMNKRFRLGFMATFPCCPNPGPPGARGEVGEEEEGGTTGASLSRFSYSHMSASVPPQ

[8] = molecular target: Neuronal acetylcholine receptor subunit alpha-4 (Homo sapiens, UniProt P43681)
Sequence of Neuronal acetylcholine receptor subunit alpha-4 (P43681 whole entry): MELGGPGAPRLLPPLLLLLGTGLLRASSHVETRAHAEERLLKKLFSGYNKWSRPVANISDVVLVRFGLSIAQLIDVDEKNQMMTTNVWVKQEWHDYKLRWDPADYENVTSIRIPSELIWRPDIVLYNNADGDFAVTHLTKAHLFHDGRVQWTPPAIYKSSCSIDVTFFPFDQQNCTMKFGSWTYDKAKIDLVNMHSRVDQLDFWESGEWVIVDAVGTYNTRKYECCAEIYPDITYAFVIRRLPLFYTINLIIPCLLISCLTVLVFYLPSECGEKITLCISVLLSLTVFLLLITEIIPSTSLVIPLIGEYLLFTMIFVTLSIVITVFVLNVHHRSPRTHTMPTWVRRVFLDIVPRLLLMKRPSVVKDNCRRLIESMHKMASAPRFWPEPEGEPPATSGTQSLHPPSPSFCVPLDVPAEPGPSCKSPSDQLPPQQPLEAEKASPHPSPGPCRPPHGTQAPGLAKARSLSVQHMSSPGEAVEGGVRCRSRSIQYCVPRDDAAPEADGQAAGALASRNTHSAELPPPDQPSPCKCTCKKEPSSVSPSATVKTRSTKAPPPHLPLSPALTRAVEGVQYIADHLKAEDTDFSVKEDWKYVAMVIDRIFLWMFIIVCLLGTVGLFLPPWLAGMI

[9] = molecular target: Growth hormone secretagogue receptor type 1 (Homo sapiens, UniProt Q92847)
Sequence of Growth hormone secretagogue receptor type 1 (Q92847 whole entry): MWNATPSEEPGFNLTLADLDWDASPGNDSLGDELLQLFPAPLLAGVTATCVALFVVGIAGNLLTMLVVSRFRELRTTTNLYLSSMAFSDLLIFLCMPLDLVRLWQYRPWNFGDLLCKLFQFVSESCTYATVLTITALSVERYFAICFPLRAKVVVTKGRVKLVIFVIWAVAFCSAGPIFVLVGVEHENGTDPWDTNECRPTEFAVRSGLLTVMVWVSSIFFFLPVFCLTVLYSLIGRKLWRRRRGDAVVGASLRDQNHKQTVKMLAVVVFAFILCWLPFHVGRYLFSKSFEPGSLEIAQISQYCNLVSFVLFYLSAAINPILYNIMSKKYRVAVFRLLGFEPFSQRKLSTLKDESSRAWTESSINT

[10] = molecular target: T5, Prostaglandin G/H synthase 1 (Rattus norvegicus, UniProt Q63921); assay type: functional
T5 sequence (Q63921 whole entry): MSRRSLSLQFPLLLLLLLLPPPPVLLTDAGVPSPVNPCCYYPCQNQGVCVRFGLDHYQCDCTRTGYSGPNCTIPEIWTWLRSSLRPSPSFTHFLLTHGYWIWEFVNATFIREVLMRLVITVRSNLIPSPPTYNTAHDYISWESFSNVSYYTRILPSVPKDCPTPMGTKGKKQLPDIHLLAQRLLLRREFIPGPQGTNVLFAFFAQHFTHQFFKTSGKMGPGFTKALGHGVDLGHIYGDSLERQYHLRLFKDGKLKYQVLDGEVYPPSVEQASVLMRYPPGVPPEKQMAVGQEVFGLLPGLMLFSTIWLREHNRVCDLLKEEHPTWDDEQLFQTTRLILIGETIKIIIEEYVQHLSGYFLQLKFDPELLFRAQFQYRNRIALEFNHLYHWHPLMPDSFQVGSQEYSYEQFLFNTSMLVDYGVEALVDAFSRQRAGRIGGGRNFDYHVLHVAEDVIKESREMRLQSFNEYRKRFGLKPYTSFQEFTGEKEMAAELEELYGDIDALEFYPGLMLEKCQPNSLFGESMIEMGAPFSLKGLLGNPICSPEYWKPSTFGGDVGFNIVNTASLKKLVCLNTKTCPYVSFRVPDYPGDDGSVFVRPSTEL

[11] = molecular target: T6, Thromboxane A2 receptor (Homo sapiens, UniProt P21731)
T6 sequence (P21731 whole entry): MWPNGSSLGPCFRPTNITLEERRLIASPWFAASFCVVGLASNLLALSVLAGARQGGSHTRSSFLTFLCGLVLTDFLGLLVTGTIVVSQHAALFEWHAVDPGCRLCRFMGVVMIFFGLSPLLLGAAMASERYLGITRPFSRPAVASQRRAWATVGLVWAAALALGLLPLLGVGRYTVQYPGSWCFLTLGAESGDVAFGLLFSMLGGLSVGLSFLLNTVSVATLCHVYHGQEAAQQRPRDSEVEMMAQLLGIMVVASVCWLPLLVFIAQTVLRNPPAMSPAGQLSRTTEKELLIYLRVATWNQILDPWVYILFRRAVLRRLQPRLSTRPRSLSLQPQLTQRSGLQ

[12] = molecular target: Sodium-dependent dopamine transporter (Homo sapiens, UniProt Q01959)
Sequence of Sodium-dependent dopamine transporter (Q01959 whole entry): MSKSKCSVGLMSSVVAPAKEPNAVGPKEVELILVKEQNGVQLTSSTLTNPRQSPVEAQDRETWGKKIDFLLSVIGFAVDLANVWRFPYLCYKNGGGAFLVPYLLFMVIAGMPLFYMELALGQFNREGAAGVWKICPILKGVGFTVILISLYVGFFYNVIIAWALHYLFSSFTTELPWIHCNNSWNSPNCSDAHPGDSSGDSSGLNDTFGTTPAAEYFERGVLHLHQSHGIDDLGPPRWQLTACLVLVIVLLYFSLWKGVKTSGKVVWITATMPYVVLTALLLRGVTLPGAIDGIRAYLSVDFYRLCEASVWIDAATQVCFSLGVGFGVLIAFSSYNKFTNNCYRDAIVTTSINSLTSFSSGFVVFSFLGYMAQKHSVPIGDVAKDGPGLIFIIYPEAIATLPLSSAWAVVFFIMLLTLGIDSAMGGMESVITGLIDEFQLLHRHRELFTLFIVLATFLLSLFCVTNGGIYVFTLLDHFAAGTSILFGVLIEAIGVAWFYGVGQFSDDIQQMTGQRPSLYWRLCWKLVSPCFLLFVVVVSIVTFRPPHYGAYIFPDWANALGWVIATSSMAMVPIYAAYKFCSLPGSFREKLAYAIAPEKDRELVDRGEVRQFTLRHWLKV
Note: assay procedure not described here.

T1 sequence (P62813 whole entry): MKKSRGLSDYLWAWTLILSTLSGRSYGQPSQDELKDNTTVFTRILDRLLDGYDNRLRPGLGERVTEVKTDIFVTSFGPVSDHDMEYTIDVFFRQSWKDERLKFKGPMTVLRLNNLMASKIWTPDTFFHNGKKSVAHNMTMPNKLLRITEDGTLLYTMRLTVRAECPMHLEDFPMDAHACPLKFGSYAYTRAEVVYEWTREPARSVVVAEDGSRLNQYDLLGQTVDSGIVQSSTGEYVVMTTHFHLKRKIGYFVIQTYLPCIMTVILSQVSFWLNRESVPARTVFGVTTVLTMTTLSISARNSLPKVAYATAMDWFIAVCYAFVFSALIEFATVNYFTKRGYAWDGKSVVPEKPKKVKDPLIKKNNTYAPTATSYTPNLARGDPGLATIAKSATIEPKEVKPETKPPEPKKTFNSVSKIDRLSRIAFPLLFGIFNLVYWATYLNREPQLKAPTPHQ

## CCCCCCCC(=O)N[C@H](CN1CCCC1)[C@H](O)c1ccc2c(c1)OCCO2
[1]
  AC50: > 30 µM

## CC(C1=C(CCN(C)C)Cc2ccccc21)c1ccccn1 (stereo not drawn)
[1]
  AC50: > 30 µM

## CC(=O)OC(C)OC(=O)C(C)c1ccc(-c2ccccc2)c(F)c1 (stereo not drawn)
[1]
  AC50: > 30 µM

## C[C@H](N)C(=O)O [ALANINE]
[1]
  AC50: > 30 µM

## O=C1c2c(O)cccc2Cc2cccc(O)c21 [ANTHRALIN]
[1]
  AC50: > 3 µM

## CNC(=O)C[C@@H](N)C(=O)N[C@@H](C(=O)N[C@@H]1C(=O)N2[C@@H]1SC(C)(C)[C@@H]2C(=O)O)c1ccc(O)cc1 [ASPOXICILLIN]
[1]
  AC50: > 30 µM

## COC(=O)C1=C(C)NC(C)=C(C(=O)O[C@H]2CCN(Cc3ccccc3)C2)[C@H]1c1cccc([N+](=O)[O-])c1 [BARNIDIPINE]
[1]
  AC50: > 30 µM

## C[C@@H](O)[C@H]1C(=O)N2C(C(=O)[O-])=C(SC3Cn4cnc[n+]4C3)[C@H](C)[C@H]12 (stereo partly drawn) [BIAPENEM]
[1]
  AC50: > 30 µM

## CCCCOc1ccc(CC(=O)NO)cc1 [BUFEXAMAC]
[1]
  AC50: > 30 µM

## Cc1nnc(SCC2=C(C(=O)O)N3C(=O)[C@@H](NC(=O)Cn4cc(Cl)c(=O)c(Cl)c4)[C@H]3SC2)s1 [CEFAZEDONE]
[1]
  AC50: > 30 µM

## CO[C@@]1(NC(=O)CSCC#N)C(=O)N2C(C(=O)O)=C(CSc3nnnn3C)CS[C@@H]21 [CEFMETAZOLE]
[2]
  AC50: > 30 µM
[1]
  AC50: > 30 µM
[3]
  AC50: > 30 µM
[4]
  AC50: > 30 µM
[5]
  AC50: > 30 µM

## CO/N=C(\C(=O)N[C@@H]1C(=O)N2C(C(=O)[O-])=C(C[n+]3cccc4c3CCC4)CS[C@H]12)c1csc(N)n1 [CEFPIROME]
[2]
  AC50: > 30 µM
[1]
  AC50: > 30 µM
[3]
  AC50: > 30 µM
[4]
  AC50: > 30 µM
[5]
  AC50: > 30 µM

## Nc1ncnc(Nc2ccc(Cl)cc2)n1 [CHLORAZANIL]
[1]
  AC50: > 30 µM

## CCC[C@@H]1C[C@@H](C(=O)N[C@@H]([C@H]2O[C@H](SC)[C@H](OP(=O)(O)O)[C@@H](O)[C@H]2O)[C@H](C)Cl)N(C)C1 [CLINDAMYCIN PHOSPHATE]
[1]
  AC50: > 30 µM

## Oc1c(I)cc(Cl)c2cccnc12 [CLIOQUINOL]
[2]
  AC50: > 30 µM
[1]
  AC50: > 30 µM
[3]
  AC50: > 30 µM
[4]
  AC50: > 30 µM
[5]
  AC50: > 30 µM

## C[C@@H]1C[C@H]2[C@@H]3C[C@H](F)C4=CC(=O)C=C[C@]4(C)[C@@]3(Cl)[C@@H](O)C[C@]2(C)[C@H]1C(=O)COC(=O)C(C)(C)C [CLOCORTOLONE PIVALATE]
[1]
  AC50: > 30 µM

## O=P(O)(O)C(Cl)(Cl)P(=O)(O)O [CLODRONIC ACID]
[1]
  AC50: > 30 µM

## O=C(CCCN1CC=C(n2c(=O)[nH]c3ccccc32)CC1)c1ccc(F)cc1 [DROPERIDOL]
[1]
  AC50: > 30 µM

## CCOC(=O)c1ccc(OC(=O)CCCCCNC(=N)N)cc1 [GABEXATE]
[1]
  AC50: > 30 µM

## CCCCC/C=C\C/C=C\C/C=C\CCCCC(=O)O [GAMOLENIC ACID]
[1]
  AC50: > 30 µM

## NC(=O)NCCC[C@H](N)C(=O)O [L-CITRULLINE]
[1]
  AC50: > 30 µM

## CC(=O)O[C@H]1C[C@H](O[C@H]2[C@@H](O)C[C@H](O[C@H]3[C@@H](O)C[C@H](O[C@H]4CC[C@@]5(C)[C@H](CC[C@@H]6[C@@H]5C[C@@H](O)[C@]5(C)[C@@H](C7=CC(=O)OC7)CC[C@]65O)C4)O[C@@H]3C)O[C@@H]2C)O[C@H](C)[C@H]1O[C@@H]1O[C@H](CO)[C@@H](O)[C@H](O)[C@H]1O [LANATOSIDE C]
[1]
  AC50: > 30 µM

## Nc1nc(N)nc(Nc2ccc([As]3SCC(CO)S3)cc2)n1 (stereo not drawn) [MELARSOPROL]
[1]
  AC50: 21 µM

## CO[C@H]1[C@@H](O)C[C@H](O[C@H]2[C@@H](O)C[C@H](O[C@H]3[C@@H](O)C[C@H](O[C@H]4CC[C@@]5(C)[C@H](CC[C@@H]6[C@@H]5C[C@@H](O)[C@]5(C)[C@@H](C7=CC(=O)OC7)CC[C@]65O)C4)O[C@@H]3C)O[C@@H]2C)O[C@@H]1C [METILDIGOXIN]
[1]
  AC50: > 30 µM

## CC1(C)S[C@@H]2[C@H](NC(=O)[C@H](NC(=O)N3CCN(S(C)(=O)=O)C3=O)c3ccccc3)C(=O)N2[C@H]1C(=O)O [MEZLOCILLIN]
[1]
  AC50: > 30 µM

## CCC(=O)O[C@@H]1CC(=O)O[C@H](C)C/C=C/C=C/[C@H](OC(C)=O)[C@H](C)C[C@H](CC=O)[C@H](O[C@@H]2O[C@H](C)[C@@H](O[C@H]3C[C@@](C)(OC(C)=O)[C@@H](OC(=O)CC)[C@H](C)O3)[C@H](N(C)C)[C@H]2O)[C@H]1OC [MIOCAMYCIN]
[1]
  AC50: > 30 µM

## c1ccc2c(CC3=NCCN3)cccc2c1 [NAPHAZOLINE]
[2]
  AC50: 0.14 µM
[1]
  AC50: > 30 µM

## C1CNCCN1 [PIPERAZINE]
[1]
  AC50: > 30 µM

## O=C(NC(Cc1cc(=O)[nH]c2ccccc12)C(=O)O)c1ccc(Cl)cc1 (stereo not drawn) [REBAMIPIDE]
[1]
  AC50: > 30 µM

## CCCCCCCCCCCCCCCCCC(=O)NCCCC[C@H](NC(=O)CC[C@@H](NC(=O)[C@H](C)NC(=O)[C@@H](C)O[C@H]1[C@H](O)[C@@H](CO)OC(O)[C@@H]1NC(C)=O)C(N)=O)C(=O)O (stereo partly drawn) [ROMURTIDE]
[1]
  AC50: > 30 µM

## O=C(Oc1ccccc1C(=O)O)c1ccccc1O [SALSALATE]
[1]
  AC50: > 30 µM

## CCOC(=O)[C@H](CCc1ccccc1)N[C@H]1CS[C@H](c2cccs2)CN(CC(=O)O)C1=O [TEMOCAPRIL]
[1]
  AC50: > 30 µM

## CN(C)c1cc(NC(=O)CNC(C)(C)C)c(O)c2c1C[C@H]1C[C@H]3[C@H](N(C)C)C(O)=C(C(N)=O)C(=O)[C@@]3(O)C(O)=C1C2=O [TIGECYCLINE]
[2]
  AC50: > 30 µM
[6]
  AC50: > 30 µM
[7]
  AC50: > 30 µM
[8]
  AC50: > 30 µM
[3]
  AC50: > 30 µM
[9]
  AC50: > 30 µM
[4]
  AC50: > 30 µM
[5]
  AC50: > 30 µM
[10]
  AC50: 160 nM
[11]
  AC50: > 30 µM
[12]
  AC50: > 30000 nM

## C[C@@H]1C[C@H]2[C@@H]3CCC4=CC(=O)C=C[C@]4(C)C3=CC[C@]2(C)[C@H]1C(=O)CN1CCN(c2cc(N3CCCC3)nc(N3CCCC3)n2)CC1 [TIRILAZAD]
[1]
  AC50: > 30 µM

## OCCN1CCN(CC/C=C2/c3ccccc3Sc3ccc(Cl)cc32)CC1 [ZUCLOPENTHIXOL]
[2]
  AC50: > 10 µM
[6]
  AC50: > 10 µM
[7]
  AC50: > 10 µM
[8]
  AC50: > 10 µM
[3]
  AC50: > 10 µM
[9]
  AC50: > 10 µM
[4]
  AC50: > 10 µM
[5]
  AC50: 0.92 µM
[10]
  AC50: > 10000 nM
[11]
  AC50: > 10 µM
[12]
  AC50: 1000 nM
